Some test systems named below: TK-10 renal; 786-0 renal; HL-60(TB) leukemia; OVCAR-5 ovarian; IGROV1 ovarian; HOP-92 NSCLC; HOP-62 NSCLC; SNB-19 CNS; COLO 205 colon; SK-OV-3 ovarian.
Common to all, as to test: DTP human tumour cell line panel, 48 h

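Each compound was tested at five concentrations against cells in 96-well plates for 48 hours. GI50 is the concentration that inhibits growth by half. TGI: total growth inhibition.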

Among the data in PubChem BioAssay (NCI) are TGI and GI50 values, retold here.

Take `COc1ccccc1/C=C1\CCC(CCN(C)C)(C2=CCCC2)C1=O` (stereo unspecified): the TGI (commonly the concentration at which net growth stops) in the assay on TK-10 renal was found to be 37.5 µM; with 786-0 renal it was 28.5 µM; in the assay on HL-60(TB) leukemia it was 45.5 µM; in the assay with OVCAR-5 ovarian, 82.5 µM; in the assay with IGROV1 ovarian it was 28.6 µM; with HOP-92 NSCLC, 46.6 µM. Besides, the TGI in the assay with HOP-62 NSCLC was 34.5 µM; in the assay on SNB-19 CNS it was 31.1 µM; with COLO 205 colon, 22.1 µM.
As for `O=Nc1c(-c2c(O)[nH]c3ccc([N+](=O)[O-])cc23)[nH]c2ccc(O)cc12`, the GI50 (usually the concentration giving 50% growth inhibition) in the assay with TK-10 renal is 2.24 µM; in the assay on 786-0 renal it was 0.319 µM; in the assay on HL-60(TB) leukemia it was 0.312 µM; with OVCAR-5 ovarian it was 1.65 µM; in the assay on IGROV1 ovarian, 0.312 µM; in the assay with HOP-92 NSCLC it was 2.78 µM. In addition, the GI50 with HOP-62 NSCLC is 0.524 µM; in the assay with SNB-19 CNS it was 0.465 µM; with COLO 205 colon it was 5.92 µM. For the same compound, the TGI in the assay on TK-10 renal is more than 100 µM; with 786-0 renal, more than 100 µM; in the assay with HL-60(TB) leukemia, 1.04 µM; with OVCAR-5 ovarian it was 51.1 µM; with IGROV1 ovarian, more than 100 µM; with HOP-92 NSCLC it was more than 29.1 µM. For the same compound, the results for the TGI in the assay on HOP-62 NSCLC, in the assay with SNB-19 CNS and in the assay with COLO 205 colon were more than 33.6 µM, more than 100 µM and 40.5 µM, respectively.
Regarding `Cc1ccc(-c2cc(-c3ccco3)c(C#N)c(=O)[nH]2)cc1`, the TGI with TK-10 renal, in the assay on 786-0 renal, in the assay with HL-60(TB) leukemia, with OVCAR-5 ovarian, with IGROV1 ovarian and in the assay with HOP-92 NSCLC was more than 100 µM in each case. Moreover, the TGI was 97.6 µM in the assay with SK-OV-3 ovarian, more than 100 µM in the assay on HOP-62 NSCLC, more than 100 µM with SNB-19 CNS and more than 100 µM in the assay with COLO 205 colon.
`CCn1c(C(=O)N(C2CC2)C2CC2)cc2c3c(ncn3C)c(Nc3cc(C)n(C)n3)nc21`: the GI50 in the assay with TK-10 renal is more than 100 µM; in the assay with 786-0 renal, more than 100 µM; in the assay with HL-60(TB) leukemia it was more than 100 µM; in the assay on OVCAR-5 ovarian it was more than 100 µM; in the assay on IGROV1 ovarian, 7.62 µM; in the assay on HOP-92 NSCLC, more than 100 µM. Further, the GI50 in the assay on SK-OV-3 ovarian, in the assay with HOP-62 NSCLC, with SNB-19 CNS and in the assay on COLO 205 colon was more than 100 µM in each case. Further, the TGI with TK-10 renal, in the assay with 786-0 renal, in the assay on HL-60(TB) leukemia, with OVCAR-5 ovarian, in the assay with IGROV1 ovarian and in the assay on HOP-92 NSCLC was more than 100 µM each time. Also, the TGI in the assay with SK-OV-3 ovarian, with HOP-62 NSCLC, in the assay with SNB-19 CNS and with COLO 205 colon was more than 100 µM in each case.
Take `COc1ccc(Nc2ncc(Br)c(NCCCNC(=O)C3CCC3)n2)cc1`: the GI50 is 5.46 µM with TK-10 renal; 10.1 µM with 786-0 renal; 5.59 µM in the assay on HL-60(TB) leukemia; 10.8 µM in the assay on OVCAR-5 ovarian; 14.6 µM with IGROV1 ovarian; 5.58 µM with HOP-92 NSCLC. Moreover, the GI50 with SK-OV-3 ovarian was 14.1 µM; in the assay with HOP-62 NSCLC it was 4.77 µM; in the assay with SNB-19 CNS, 8.95 µM; with COLO 205 colon, 10.6 µM. Moreover, the TGI in the assay on TK-10 renal amounted to 38.7 µM; in the assay on 786-0 renal, 47.1 µM; with HL-60(TB) leukemia, 45.8 µM; in the assay with OVCAR-5 ovarian, 40.2 µM; in the assay with IGROV1 ovarian, 44.5 µM; in the assay on HOP-92 NSCLC, 39.8 µM. The TGI in the assay with SK-OV-3 ovarian is 36.6 µM; in the assay with HOP-62 NSCLC, 44.8 µM; in the assay on SNB-19 CNS, more than 100 µM; in the assay on COLO 205 colon it was 30.8 µM.
Consider `OC1c2ccccc2C2(O)C1C(c1ccccc1)C(c1ccccc1)C2(O)c1ccccc1` (stereo unspecified), for which the total growth inhibition concentration (TGI) was 85.4 µM with TK-10 renal; 31.1 µM in the assay with 786-0 renal; 31.9 µM in the assay with HL-60(TB) leukemia; 26.7 µM in the assay with OVCAR-5 ovarian; 82.9 µM with IGROV1 ovarian; 23.9 µM with HOP-92 NSCLC. The total growth inhibition concentration (TGI) in the assay with SK-OV-3 ovarian was 64 µM; with HOP-62 NSCLC, 28.2 µM; in the assay on SNB-19 CNS it was more than 100 µM; in the assay on COLO 205 colon, 30.7 µM.
For the compound `CN1CCN(c2ccc(NC(=O)c3nc4ccc5[nH]ncc5c4c4c3CCCC4)cc2C(F)(F)F)CC1`, the GI50 with TK-10 renal was 1.04 µM; in the assay on 786-0 renal, 0.841 µM; in the assay on HL-60(TB) leukemia, 0.969 µM; with OVCAR-5 ovarian, 1.5 µM; with IGROV1 ovarian it was 0.821 µM; with HOP-92 NSCLC, 0.658 µM. The GI50 in the assay with SK-OV-3 ovarian was 1.48 µM; in the assay on HOP-62 NSCLC, 0.918 µM; in the assay on SNB-19 CNS, 1.39 µM; in the assay with COLO 205 colon it was 0.84 µM. For the same compound, the TGI in the assay with TK-10 renal was determined as 2.2 µM; in the assay with 786-0 renal, 1.52 µM; in the assay on HL-60(TB) leukemia, 2.1 µM; in the assay on OVCAR-5 ovarian, 8.39 µM; with IGROV1 ovarian it was 1.73 µM; with HOP-92 NSCLC it was 1.34 µM. In addition, the TGI in the assay on SK-OV-3 ovarian is 5.25 µM; with HOP-62 NSCLC, 1.89 µM; in the assay with SNB-19 CNS, 4.58 µM; in the assay with COLO 205 colon, 1.68 µM.
On to `O=C(/C=C/c1ccccc1)CC1OC(=O)c2ccccc21` (stereo unspecified), for which the total growth inhibition concentration (TGI) in the assay with TK-10 renal, in the assay on 786-0 renal, in the assay on HL-60(TB) leukemia, in the assay on OVCAR-5 ovarian, with IGROV1 ovarian and in the assay with HOP-92 NSCLC was more than 100 µM throughout. Further, the concentration for total growth inhibition (TGI) in the assay with SK-OV-3 ovarian, in the assay on HOP-62 NSCLC, in the assay with SNB-19 CNS and in the assay on COLO 205 colon was more than 100 µM throughout.
Regarding `CC(C)=CCC/C(C)=C/CC/C(C)=C/Cc1c(O)c2ccccc2oc1=O`, the TGI with TK-10 renal, in the assay on 786-0 renal, in the assay with HL-60(TB) leukemia, in the assay on IGROV1 ovarian, with HOP-92 NSCLC and in the assay with SK-OV-3 ovarian was more than 100 µM in each case. Besides, the concentration for total growth inhibition (TGI) in the assay on HOP-62 NSCLC, in the assay with SNB-19 CNS and in the assay on COLO 205 colon was more than 100 µM in each case.
